Structures can show the parent of a compound that is named as a salt.
Key:
[1] = target: T1, glycine binding pocket of the NMDA receptor (Rattus norvegicus, UniProt P35439); assay: [3H]MDL-105,519 displacement studies (rat cortical membranes); settings: displacement of 2 nM [3H]-MDL-105,519, rat cortical membranes; read-out: NMDA-MDL 105519-r-CTX - IC50
T1 construct: For isolation of the cell membranes, the cortices are homogenized; from tissue; host or cells: rat cerebral cortex membranes (male Sprague-Dawley)

[2] = target: NMDA receptor glycine B site (Rattus norvegicus, UniProt P35439); assay: Calcium FLIPR studies, rat cortical neurons (NMDA/D-Serine induced intracellular calcium); assay type: cell-based; parameters: Primary neurons are prepared from cortices of embryonal rats at day 17 of pregnancy; endogenous in cells; host or cells: primary rat cortical neurons (E17, 11-13 DIV); settings: rat cortical neurons; stimulation with 30 μM NMDA and 1 μM D-Serine; antagonist pre-incubated 10 min; read-out: NMDA-FLIPR-rCTX-NAM - IC50
Method: Antagonistic potencies of the test compounds are functionally evaluated using electrophysiological whole cell patch-clamp recordings and/or fluorometric intracellular Ca^2+-imaging (FLIPR) screens.
Sprague-Dawley rat embryos (E 17) are decapitated and neocortices are dissected, trypsinized and carefully triturated. The cell suspension is plated on poly-D-lysine pre-coated 96-well Plates (Greiner, Frickenhausen, Germany) at a cell density of 55.000 cells/well. The neurons are cultivated in Neurobasal media containing B27-Supplement and […] L-Glutamine (Biochrom) at 37° C. in a humidified atmosphere of 5% CO2/95% air. Medium is exchanged completely at day 4 and to 50% on day 7. At the time of experiments neurons are 11-13 days in vitro.
The increase of intracellular calcium after stimulation with 30 μM NMDA and 1 μM D-Serine is measured using the fluorometric imaging plate reader (FLIPR) and the Calcium-4-Kit (both Molecular Devices, Ismaning, Germany). Prior to addition of agonist or antagonist (5 different concentrations, n=5) the medium is aspirated and cells are washed once before loading with 150 μL of loading buffer (1 h at room temperature), consisting of Ca-4 sensitive dye reconstituted in extracellular bath solution, pH 7.3. Subsequently, plates are transferred to FLIPR to detect increases in intracellular calcium after the addition of agonist, measured as relative fluorescence units (RFU). Antagonists are pre-incubated with the cells for 10 min at room temperature before the addition of the agonist and co-agonist.
The fluorescence signal increase after addition of agonist reflects the increase of intracellular calcium. Inconsistencies in the amount of cells per well are normalised by using the spatial uniformity correction of the FLIPR software (Screenworks, Molecular Devices). The mean of replicated temporal data (n=5) is calculated and used for graphical representation. For the evaluation of the antagonistic potency, the calcium changes in response to different concentrations of antagonist are determined using an area under the curve (AUC) calculation. All responses (RFU-values) are determined as percentage of control (=maximum response at 30 μM NMDA and 1 μM D-Serine). IC50 values are calculated according the four parameter logistic equation using GraFit (Erithacus Software).

Structure (SMILES) | melting point | IC50 [1] [nM] | IC50 [2] [µM]
CNC(=O)COc1cc(CN)ccc1NC(=O)COc1cc(C(=O)O)cc2cc(Cl)cc(Cl)c12 (as salt: hydrochloride) [Example 116, 4-[(4-Aminomethyl-2-methylcarbamoylmethoxy-phenylcarbamoyl)-methoxy]-5,7-dichloro-naphthalene-2-carboxylic acid] | 233 to 235 °C | – | –
NCc1cc(OCC(=O)O)ccc1NC(=O)COc1cc(C(=O)O)cc2cc(Cl)cc(Cl)c12 (as salt: trifluoroacetate) [Example 97, 4-[(2-Aminomethyl-4-carboxymethoxy-phenylcarbamoyl)-methoxy]-5,7-dichloro-naphthalene-2-carboxylic acid] | > 169 °C | – | –
N#Cc1ccccc1NC(=O)COc1cc(C(=O)O)cc2cc(Cl)cc(Cl)c12 [Example 82, 5,7-Dichloro-4-[(2-cyano-phenylcarbamoyl)-methoxy]-naphthalene-2-carboxylic acid] | > 250 °C | 440 | –
O=C(COc1cc(C(=O)O)cc2cc(Cl)cc(Cl)c12)Nc1cccc(Cc2nnn[nH]2)c1 [Example 90, 5,7-Dichloro-4-{[3-(1H-tetrazol-5-ylmethyl)-phenylcarbamoyl]-methoxy}naphthalene-2-carboxylic acid] | – | 550 | 2.68
CNC(=O)COc1ccccc1NC(=O)COc1cc(C(=O)O)cc2cc(Cl)cc(Cl)c12 [Example 91, 5,7-Dichloro-4-[(2-methylcarbamoylmethoxy-phenylcarbamoyl)-methoxy]-naphthalene-2-carboxylic acid] | – | 1270 | 10.8
O=C(COc1cc(C(=O)O)cc2cc(Cl)cc(Cl)c12)Nc1cccc(OCc2nnn[nH]2)c1 [Example 92, 5,7-Dichloro-4-{[3-(1H-tetrazol-5-ylmethoxy)-phenylcarbamoyl]-methoxy}-naphthalene-2-carboxylic acid] | – | 656 | 3.84
NC(=O)COc1ccccc1NC(=O)COc1cc(C(=O)O)cc2cc(Cl)cc(Cl)c12 [Example 95, 4-[(2-Carbamoylmethoxy-phenylcarbamoyl)-methoxy]-5,7-dichloro-naphthalene-2-carboxylic acid] | – | 641 | 7.17
O=C(O)c1cc(OCC(=O)N2c3ccccc3CC2c2nnn[nH]2)c2c(Cl)cc(Cl)cc2c1 (stereo not shown) [Example 99, 5,7-Dichloro-4-{2-oxo-2-[2-(1H-tetrazol-5-yl)-2,3-dihydro-indol-1-yl]-ethoxy}-naphthalene-2-carboxylic acid] | – | 909 | 5.95
O=C(COc1cc(C(=O)O)cc2cc(Cl)cc(Cl)c12)Nc1ccccc1Cc1nnn[nH]1 [Example 100, 5,7-Dichloro-4-{[2-(1H-tetrazol-5-ylmethyl)-phenylcarbamoyl]-methoxy}-naphthalene-2-carboxylic acid] | – | 559 | 4.1
O=C(COc1cc(C(=O)O)cc2cc(Cl)cc(Cl)c12)Nc1cccc(-c2nnn[nH]2)c1 [Example 101, 5,7-Dichloro-4-{[3-(1H-tetrazol-5-yl)-phenylcarbamoyl]-methoxy}-naphthalene-2-carboxylic acid] | – | 344 | 2.27
O=C(COc1cc(C(=O)O)cc2cc(Cl)cc(Cl)c12)NCc1cccnc1 [Example 104, 5,7-Dichloro-4-{[(pyridin-3-ylmethyl)-carbamoyl]-methoxy}-naphthalene-2-carboxylic acid] | – | 186 | 1.39
O=C(COc1cc(C(=O)O)cc2cc(Cl)cc(Cl)c12)NCc1ccncc1 [Example 105, 5,7-Dichloro-4-{[(pyridin-4-ylmethyl)-carbamoyl]-methoxy}-naphthalene-2-carboxylic acid] | – | 1030 | 7.09
O=C(COc1cc(C(=O)O)cc2cc(Cl)cc(Cl)c12)NCc1cccc(-c2nnn[nH]2)c1 [Example 107, 5,7-Dichloro-4-{[3-(1H-tetrazol-5-yl)-benzylcarbamoyl]-methoxy}-naphthalene-2-carboxylic acid] | – | 139 | 1.44
NC(=O)c1cccc(NC(=O)COc2cc(C(=O)O)cc3cc(Cl)cc(Cl)c23)c1 [Example 113, 4-[(3-Carbamoyl-phenylcarbamoyl)-methoxy]-5,7-dichloro-naphthalene-2-carboxylic acid] | > 250 °C | 284 | –
O=C(COc1cc(C(=O)O)cc2cc(Cl)cc(Cl)c12)NCc1ccccc1Cc1nnn[nH]1 [Example 118, 5,7-Dichloro-4-{[2-(1H-tetrazol-5-ylmethyl)-benzylcarbamoyl]-methoxy}-naphthalene-2-carboxylic acid] | 239 to 240 °C | – | –
O=C(COc1cc(C(=O)O)cc2cc(Cl)cc(Cl)c12)NCc1cccc(Cc2nnn[nH]2)c1 [Example 119, 5,7-Dichloro-4-{[3-(1H-tetrazol-5-ylmethyl)-benzylcarbamoyl]-methoxy}-naphthalene-2-carboxylic acid] | 243 to 244 °C | – | –

Other lines, results leading:

melting point | IC50 [1] [nM] | IC50 [2] [µM] | Structure (SMILES)
247 to 248 °C | – | – | O=C(COc1cc(C(=O)O)cc2cc(Cl)cc(Cl)c12)NCc1ccc(Cc2nnn[nH]2)cc1 [Example 120, 5,7-Dichloro-4-{[4-(1H-tetrazol-5-ylmethyl)-benzylcarbamoyl]-methoxy}-naphthalene-2-carboxylic acid]
244 to 245 °C | – | – | O=C(O)COc1cc(CO)ccc1NC(=O)COc1cc(C(=O)O)cc2cc(Cl)cc(Cl)c12 [Example 122, 4-[(2-Carboxymethoxy-4-hydroxymethyl-phenylcarbamoyl)-methoxy]-5,7-dichloro-naphthalene-2-carboxylic acid]
> 236 °C (dec.) | – | – | O=C(COc1cc(C(=O)O)cc2cc(Cl)cc(Cl)c12)NCc1ccc(OCc2nnn[nH]2)cc1 [Example 126, 5,7-Dichloro-4-{[4-(1H-tetrazol-5-ylmethoxy)-benzylcarbamoyl]-methoxy}-naphthalene-2-carboxylic acid]
246 to 247 °C | 1370 | – | O=C(COc1cc(C(=O)O)cc2cc(Cl)cc(Cl)c12)Nc1cccc(OCc2nnn[nH]2)c1OCc1nnn[nH]1 [Example 128, 4-{[2,3-Bis-(1H-tetrazol-5-ylmethoxy)-phenylcarbamoyl]-methoxy}-5,7-dichloro-naphthalene-2-carboxylic acid]
224 to 225 °C | – | – | COCC(Oc1cc(C(=O)O)cc2cc(Cl)cc(Cl)c12)C(=O)Nc1ccccc1OCC(=O)O (stereo not shown) [Example 131, 4-[1-(2-Carboxymethoxy-phenylcarbamoyl)-2-methoxy-ethoxy]-5,7-dichloro-naphthalene-2-carboxylic acid]
242 to 243 °C | – | – | CN1CCc2sc(NC(=O)COc3cc(C(=O)O)cc4cc(Cl)cc(Cl)c34)nc2C1 [Example 132, 5,7-Dichloro-4-[(5-methyl-4,5,6,7-tetrahydro-thiazolo[4,5-c]pyridin-2-ylcarbamoyl)-methoxy]-naphthalene-2-carboxylic acid]
> 250 °C | – | – | Cc1cnc(NC(=O)COc2cc(C(=O)O)cc3cc(Cl)cc(Cl)c23)s1 [Example 133, 5,7-Dichloro-4-[(5-methyl-thiazol-2-ylcarbamoyl)-methoxy]-naphthalene-2-carboxylic acid]
217 to 218 °C | – | – | O=C(COc1ccccc1NC(=O)COc1cc(C(=O)O)cc2cc(Cl)cc(Cl)c12)NCCO [Example 134, 5,7-Dichloro-4-({2-[(2-hydroxy-ethylcarbamoyl)-methoxy]-phenylcarbamoyl}-methoxy)-naphthalene-2-carboxylic acid]
> 250 °C | – | – | Cc1nc(NC(=O)COc2cc(C(=O)O)cc3cc(Cl)cc(Cl)c23)sc1C [Example 135, 5,7-Dichloro-4-[(4,5-dimethyl-thiazol-2-ylcarbamoyl)-methoxy]-naphthalene-2-carboxylic acid]
> 250 °C | – | – | NC(=O)c1[nH]cnc1NC(=O)COc1cc(C(=O)O)cc2cc(Cl)cc(Cl)c12 [Example 136, 4-[(5-Carbamoyl-1H-imidazol-4-ylcarbamoyl)-methoxy]-5,7-dichloro-naphthalene-2-carboxylic acid]
246 to 247 °C | – | – | N#CCc1ccccc1NC(=O)COc1cc(C(=O)O)cc2cc(Cl)cc(Cl)c12 [Example 137, 5,7-Dichloro-4-[(2-cyanomethyl-phenylcarbamoyl)-methoxy]-naphthalene-2-carboxylic acid]
